{"source": "patent US12673063B2", "about": "“Methods and materials for treatment of fibrosis” (Massachusetts Eye and Ear Infirmary, priority 2020, dated 2026)", "key": {"[1]": {"tested_on": "human immunodeficiency virus (HIV)", "conditions": "patients infected with HIV; cited from earlier work"}, "[2]": {"tested_on": "bleomycin-induced lung fibrosis", "test": "Bleomycin-induced lung fibrosis model, H&E, Masson's trichrome, Ashcroft score", "type": "in vivo, C57BL/6J mice", "method": "Animal procedures were approved by the Institutional Animal Care and Use Committee (IACUC) of Massachusetts Eye and Ear, and performed in accordance with the Association for Research in Vision and Ophthalmology Statement for the Use of Animals in Ophthalmic and Vision Research. C57BL/6J male and female mice of 6-8 weeks-old were purchased from Jackson Laboratories. For all procedures, mice were anesthetized by intraperitoneal injection of Ketamine/xylazine mixture (100/50 mg/Kg).\nBleomycin sulphate (Sigma-Aldrich) was dissolved in sterile 0.9% saline and administered as a single dose of 0.05 units in a total volume of 50 μl in saline solution per animal intratracheally (IT). Control animals received 0.05 mL saline alone. A preventative regimen was chosen and each animal received either Ro24-7429 drug 70 mg/kg or vehicle every other day 7 days before the induction of the model and continued until the end of the experiment for 1 week or 2 weeks. All animals received intratracheal instillations of either bleomycin on day 0 as previously described (52-55). A separate experiment was performed with similar drug-vehicle treatments and IT saline instillation for controls. The surgeon performing IT instillations was masked to the identity of the treatment groups.\nLung samples were fixed in 10% neutral buffered formalin (Sigma, HT501128-4L), for 24 hours for histological analysis. Fixed lungs were paraffin embedded and sectioned (5 μm-thick) and stained with hematoxylin and eosin (H&E) to examine gross morphology and Masson's trichrome stain to visualize collagen deposition and examined by microscopy. Lung fibrosis was measured using quantitative histology using the Ashcroft method of analysis. All measurements were performed by two independent graders in a blinded fashion. Images were acquired with the Nikon Eclipse E800 microscope with an Olympus DP70 Camera. Adjacent 2× images of the lung were stitched together using Adobe Photoshop CS6.\nBleomycin triggers a strong inflammatory response in the lung at day 7 characterized by infiltration with neutrophils and macrophages, vascular leakage, and up-regulation of cytokines, chemokines and other inflammatory mediators. By day 14, bleomycin treated mice are expected to develop significant lung fibrosis including disruption of the normal lung architecture, thickening of the alveolar septa, and excessive extracellular matrix and collagen deposition around the alveolar structures. We examined the effects of escalating doses of Ro24-7429 (17.5, 35 and 70 mg/kg per day) on bleomycin-induced lung fibrosis by H&E and Masson's trichrome staining in mice at day 14 (FIG. 1A-B, FIG. 5A-B). These doses were estimated to be equivalent to those used in the Ro24-7429 human trial, 75, 150 or 300 mg per day, respectively (28)."}, "A549 cells": {"tested_on": "A549 cells", "test": "Lactate dehydrogenase (LDH) cell death assay, A549", "type": "cell-based", "conditions": "A549; Ro24-7429 50-200 μM, Ro5-3335 150 μM", "method": "Human type II alveolar epithelial cells (A549) were a generous gift from Dr. Lagares (Mass General Hospital). Cells were maintained in low glucose-DMEM containing 10% FBS, 2 mM L-glutamine, 100 U/ml penicillin and 100 μg/ml streptomycin at 37° C. in a humidified 5% C02 atmosphere.\nWe tested the effect of RUNX1 inhibition on the proliferation of a human alveolar basal epithelial cell line (A549), primary human-derived pulmonary alveolar epithelial cells (HPAEpi), and in human-derived primary culture lung fibroblasts (HLF)."}, "N-Cadherin in A549 cells": {"tested_on": "N-Cadherin in A549 cells", "test": "TGF-β1-induced N-Cadherin upregulation, Western blot, A549", "type": "cell-based, human", "conditions": "A549, 150 μM and 200 μM, 24 hours prior to TGF-β1 exposure", "method": "Human type II alveolar epithelial cells (A549) were a generous gift from Dr. Lagares (Mass General Hospital). Cells were maintained in low glucose-DMEM containing 10% FBS, 2 mM L-glutamine, 100 U/ml penicillin and 100 μg/ml streptomycin at 37° C. in a humidified 5% C02 atmosphere. Confluent cultures of cells were pretreated with Ro24-7429 for 24 hours followed by stimulation with 5 ng/ml of TGF-β1.\n(§1) Protein concentration was determined by Pierce Bicinchonic acid (BCA) protein assay kit (ThermoFisher; 23227) according to the manufacturer's instructions. 20 μg of total cell lysates were prepared in 4 μL 1M 1,4-dithiothreitol (DTT; Sigma Aldrich) and 10 μL Laemmli buffer (Boston Bioproducts) to a final volume of 40 μL and denatured 5 min at 90° C. Samples were separated electrophoretically for 1 h at 70 V using 4-20% pre-cast gradient gels (Mini-PROTEAN TGX, Bio-Rad) and SDS-Tris-Glycine buffer (Bio-rad). Proteins were transferred to 0.45 μm nitrocellulose membranes for 1 h at 70 V in ice cold […] Tris-Glycine buffer (Bio-rad). Membranes were blocked for 1 h with Odyssey Blocking Buffer (LI-COR Biosciences). […]\n(§2) We evaluated the effect of RUNX1 inhibition on the expression of fibrosis markers induced by TGF-β1, a critical mediator of PF (30), in A549 cells at 24, 48 and 72 hours. […]"}, "[3]": {"tested_on": "N-Cadherin in HPAEpi cells", "test": "TGF-β1-induced N-Cadherin upregulation, Western blot, HPAEpi", "type": "cell-based, human", "conditions": "150 μM and 200 μM, 24 hours prior to TGF-β1 exposure", "method": "(§3) Human Pulmonary Alveolar Epithelial cells (HPAEpiCs) were purchased from ScienCell (Carlsbad, CA, USA) and cultured in alveolar epithelial cell medium (ScienCell) supplemented with 2% fetal bovine serum (FBS), epithelial cell growth supplement, 100 U/mL penicillin G, and 100 µg/mL streptomycin. The cells were cultured and maintained in 6-well plates for experimental purposes.\nas §1, §2"}, "[4]": {"tested_on": "ACE2 protein in HPAEpi cells", "test": "TGF-β1 and TNF-α induced ACE2 protein, Western blot, HPAEpi cells", "type": "cell-based, human", "conditions": "pretreatment", "method": "as §3, §1\nAdditionally, we studied the effect of RUNX1 inhibition on the expression of ACE2 expression in TGF-β1 and TNF-α stimulated HPAEpi cells. […] FURIN protein levels were also observed to go down by 70% in the Ro24-7429 treated mice as evaluated by Western blot (FIGS. 4E-F)."}}}
{"compound": "CNC1=Nc2ccc(Cl)cc2C(c2ccc[nH]2)=NC1", "note": "[Ro24-7429, 3H-1,4-Benzodiazepin-2-amine, 7-chloro-N-methyl-5-(1H-pyrrol-2-yl)-]", "values": [{"measurement": "antiviral activity in clinical trials", "setting": "[1]", "result": "no detectable antiviral activity"}, {"measurement": "safety profile in clinical trials", "setting": "[1]", "result": "acceptable safety profile"}, {"measurement": "effect on lung phenotype / progression of fibrosis", "setting": "[2]; 17.5 mg/kg, day 14", "result": "slight effect"}, {"measurement": "effect on the progression of fibrosis", "setting": "[2]; 35 mg/kg, day 14", "result": "moderate but variable effect"}, {"measurement": "Ashcroft fibrosis score", "setting": "[2]; 70 mg/kg, day 14", "result": "significant reduction"}, {"measurement": "lung structures after bleomycin instillation", "setting": "[2]; 70 mg/kg, day 14, H&E and Masson's trichrome", "result": "robust preservation of lung structures"}, {"measurement": "cell death by LDH analysis", "setting": "A549 cells", "result": "Very low levels of cell death"}, {"measurement": "TGF-β1-induced N-Cadherin upregulation", "setting": "N-Cadherin in A549 cells", "result": "effectively prevented"}, {"measurement": "TGF-β1-induced N-Cadherin upregulation", "setting": "[3]", "result": "effectively prevented"}, {"measurement": "TGF-β1 and TNFα induced ACE2 protein levels", "setting": "[4]", "result": "significantly reduced"}]}
